Source: US20230398130A1, “METHODS AND COMPOSITIONS FOR DIFFERENTIATING STEM CELLS” (Massachusetts Institute of Technology, priority 2020, published 2023)
Entries after “also recorded” stand apart in the source; their conditions may differ.

Tests used:
[1] = test system: ISC-enriched organoids; experiment: Primary screen, 384-well 2.5-D organoid differentiation (ENR+CD, 6 days): basal lysozyme secretion (LYZ.NS); assay type: cell-based, murine; conditions: for Z.LYZ.NS (standard z score) / Dose.FC.LYZ.NS (log 2 fold change) / Dose.FC.LYZ.NS: primary screen; for Dose.FC.LYZ.NS (log 2 fold change): vs plate median; for Dose.FC.LYZ.NS: FC vs plate median; for Z.LYZ.NS: standard z score of FC
Text: (§1) High-throughput screening.

[2] = test system: ISC-enriched organoids; experiment: Primary screen, 384-well 2.5-D organoid differentiation (ENR+CD, 6 days): carbachol-induced lysozyme secretion (LYZ.S); assay type: cell-based, murine; conditions: primary screen; for Dose.FC.LYZ.S (log 2 fold change): vs plate median; for Dose.FC.LYZ.S: FC vs plate median
Text: as §1

[3] = test system: ISC-enriched organoids; experiment: Secondary (validation) screen, 384-well 2.5-D, ENR+CD 6 days, n=8 wells, vs ENR+CD+DMSO control: ATP (CTG); assay type: cell-based, murine; parameters: key to Dose.FC.CTG: log10 fold change vs median of vehicle control wells
Description: (§2) Drugs were tested at a narrowed dose range around each treatment's identified optimal dose from the primary screen (4× below, 2× above and below).
as §1
(§3) Secondary lysozyme secretion assay screen. Confirmatory secondary screening with primary hits was performed using the above 384-well plate method. The screen was conducted with 4-plate replicates with a base media of ENR+CD. Media was supplemented with compound at day 0 and day 3 (n=8 well replicates per dose) at four different doses: two-fold above, two-fold below, and four-fold below the optimal final dose for each respective treatment. Additionally, each plate carried a large number of ENR+DMSO or ENR+CD+DMSO (vehicle) control wells (n=100 for ATP, and n=25 for LYZ.NS and LYZ.S) for robust normalization. ATP, non-stimulated lysozyme activity and CCh-stimulated lysozyme activity was again measured and the collected data was again processed in a custom R-script, per primary screen with slight modification. Values were log10 transformed, and a plate-wise FC was calculated for each well based on the median value of ENR+CD+DMSO (vehicle) control wells to normalize plate to plate variability.

[4] = test system: ISC-enriched organoids; experiment: Secondary (validation) screen, 384-well 2.5-D, ENR+CD 6 days, n=8 wells, vs ENR+CD+DMSO control: basal lysozyme secretion (LYZ.NS); assay type: cell-based, murine; parameters: key to Dose.FC.LYZ.NS: log10 fold change vs median of vehicle control wells
Description: as §2, §1, §3

[5] = test system: ISC-enriched organoids; experiment: Secondary (validation) screen, 384-well 2.5-D, ENR+CD 6 days, n=8 wells, vs ENR+CD+DMSO control: carbachol-induced lysozyme secretion (LYZ.S); assay type: cell-based, murine
Description: as §2, §1, §3

[6] = test system: ISC-enriched organoids; experiment: Primary screen, 384-well 2.5-D organoid differentiation (ENR+CD, 6 days, Target Selective Inhibitor Library, vs whole-plate median): ATP (CellTiter-Glo 3D, CTG); conditions: for Z.CTG (standard z score) / Dose.FC.CTG (log 2 fold change) / Dose.FC.CTG: primary screen; for Dose.FC.CTG (log 2 fold change): vs plate median; for Dose.FC.CTG: FC vs plate median; for Z.CTG: standard z score of FC
[7] = test system: ISC-enriched organoids; experiment: Lysozyme secretion assay, 3-D organoids in ENR+CD, normalized to ATP; assay type: cell-based, murine; conditions: for Paneth cell differentiation (functional LYZ secretion), in combination with KPT-330: 6-day ENR+CD differentiation with 160 nM KPT-330; for Paneth cell differentiation (functional LYZ secretion), compound alone: 6-day ENR+CD differentiation, 10 μM SR11302, 20 nM Cobimetinib, others over a dose range
Description: Lysozyme assay (3D culture). ISC-enriched organoids cultured in 3D Matrigel with ENRCV media were passaged to 48-well plate in 3D Matrigel with ENRCV. At day zero, media were replaced to ENR or ENRCD with or without indicated compounds, and media were replaced every other day. At day six, cells were washed twice with basal media and treated with carbamylcholine chloride (Sigma, C4382) for 3 hours. Media were collected and lysozyme activity was measured by EnzChek Lysozyme Assay Kit (ThermoFisher, E22013).
(§4) Lysozyme secretion assay. ISC-enriched organoids in 3D Matrigel culture were passaged to a 48- or 96-well plate and cultured with ENR or ENR+CD media containing DMSO or each drug for 6 days. DMSO- or drug-containing media were changed every other day. On day 6, cells were washed with basal media twice and treated with basal media with or without 10 μM carbamoylcholine chloride for 3 h in a CO2 incubator at 37° C. A part of the conditioned media was collected and used for lysozyme assay (Thermo, E-22013) following the manufacturer's instruction. The fluorescence was measured using excitation/emission of 485/530 nm. CellTiter-Glo 3D Reagent (Promega, G9681) was added afterward, and the cell culture plate was incubated on an orbital shaker at RT for 30 min to induce cell lysis and to stabilize the luminescent signal. The solution was replaced to a 96-well white microplate, and luminescent signals were measured by a microplate reader (infinite M200, Tecan). The standard curve was prepared by diluting recombinant ATP (Promega, P1132). For both assays, a polynomial cubic curve was fitted to a set of standard data, and each sample value was calculated on the Microsoft Excel.
as §4, with “in 3-D” for “in 3D”, “μM carbachol” for “μM carbamoylcholine chloride”, “3 hours” for “3 h”, “C. Conditioned” for “C. A part of the conditioned”, “nm. CTG” for “nm. CellTiter-Glo”, “Reagent” for “Reagent (Promega, G9681)”

NC(=O)c1ccc(-c2nc(-c3ccccn3)c(-c3ccc4c(c3)OCO4)[nH]2)cc1 [SB431542]
Z.LYZ.NS (standard z score) ([1]; Dose 0.08 uM): 1.225
Dose.FC.LYZ.NS (log 2 fold change) ([1]; Dose 0.08 uM): 0.141
Z.LYZ.NS (standard z score) ([1]; Dose 0.40 uM): 1.514
Dose.FC.LYZ.NS (log 2 fold change) ([1]; Dose 0.40 uM): 0.174
Z.LYZ.NS (standard z score) ([1]; Dose 2.00 uM): 1.632
Dose.FC.LYZ.NS (log 2 fold change) ([1]; Dose 2.00 uM): 0.187
Z.LYZ.NS (standard z score) ([1]; Dose 10.00 uM): 0.346
Dose.FC.LYZ.NS (log 2 fold change) ([1]; Dose 10.00 uM): 0.040
Dose.FC.LYZ.S (log 2 fold change) ([2]; Dose 0.08 uM): 0.135
Dose.FC.LYZ.S (log 2 fold change) ([2]; Dose 0.40 uM): 0.309
Dose.FC.LYZ.S (log 2 fold change) ([2]; Dose 2.00 uM): 0.223
Dose.FC.LYZ.S (log 2 fold change) ([2]; Dose 10.00 uM): 0.126
Dose.FC.CTG ([3]; Dose 0.06 uM): 0.160
Z.CTG ([3]; Dose 0.06 uM): 1.439
repSSMD.CTG ([3]; Dose 0.06 uM): 0.654
Dose.FC.CTG ([3]; Dose 0.24 uM): 0.023
Z.CTG ([3]; Dose 0.24 uM): 0.206
repSSMD.CTG ([3]; Dose 0.24 uM): 0.141
Dose.FC.CTG ([3]; Dose 0.48 uM): 0.083
Z.CTG ([3]; Dose 0.48 uM): 0.752
repSSMD.CTG ([3]; Dose 0.48 uM): 0.527
Dose.FC.CTG ([3]; Dose […]): 0.120
Dose.FC.LYZ.NS ([4]; Dose 0.06 uM): 0.089
Z.LYZ.NS ([4]; Dose 0.06 uM): 0.709
repSSMD.LYZ.NS ([4]; Dose 0.06 uM): 1.073
Dose.FC.LYZ.NS ([4]; Dose 0.24 uM): 0.105
Z.LYZ.NS ([4]; Dose 0.24 uM): 0.838
repSSMD.LYZ.NS ([4]; Dose 0.24 uM): 0.830
Dose.FC.LYZ.NS ([4]; Dose 0.48 uM): −0.016
Z.LYZ.NS ([4]; Dose 0.48 uM): −0.128
repSSMD.LYZ.NS ([4]; Dose 0.48 uM): −0.149
Dose.FC.LYZ.NS ([4]; Dose […]): 0.116
Z.LYZ.S ([5]; Dose 0.06 uM): 0.514
log10 fold change in stimulated lysozyme secretion vs vehicle control ([5]; Dose 0.06 uM): 0.067
repSSMD.LYZ.S ([5]; Dose 0.06 uM): 0.855
Z.LYZ.S ([5]; Dose 0.24 uM): 0.211
log10 fold change in stimulated lysozyme secretion vs vehicle control ([5]; Dose 0.24 uM): 0.027
repSSMD.LYZ.S ([5]; Dose 0.24 uM): 0.301
Z.LYZ.S ([5]; Dose 0.48 uM): −0.387
log10 fold change in stimulated lysozyme secretion vs vehicle control ([5]; Dose 0.48 uM): −0.050
repSSMD.LYZ.S ([5]; Dose 0.48 uM): −0.449
log10 fold change in stimulated lysozyme secretion vs vehicle control ([5]; Dose […]): 0.072
Z.CTG (standard z score) ([6]; Dose 0.08 uM): 0.907
Dose.FC.CTG (log 2 fold change) ([6]; Dose 0.08 uM): 0.380
Z.CTG (standard z score) ([6]; Dose 0.40 uM): 1.130
Dose.FC.CTG (log 2 fold change) ([6]; Dose 0.40 uM): 0.473
Z.CTG (standard z score) ([6]; Dose 2.00 uM): 0.754
Dose.FC.CTG (log 2 fold change) ([6]; Dose 2.00 uM): 0.316
Z.CTG (standard z score) ([6]; Dose 10.00 uM): 0.370
Dose.FC.CTG (log 2 fold change) ([6]; Dose 10.00 uM): 0.155

CCc1cncnc1N1CCN(Cc2nc3ccc(C(F)(F)F)cc3[nH]2)CC1 [PF-4708671]
Dose.FC.LYZ.NS ([1]; Dose 0.08 uM): 0.075 log 2 fold change
Z.LYZ.NS ([1]; Dose 0.08 uM): 0.654
Dose.FC.LYZ.NS ([1]; Dose 0.40 uM): 0.122 log 2 fold change
Z.LYZ.NS ([1]; Dose 0.40 uM): 1.059
Dose.FC.LYZ.NS ([1]; Dose 2.00 uM): 0.198 log 2 fold change
Z.LYZ.NS ([1]; Dose 2.00 uM): 1.721
Dose.FC.LYZ.NS ([1]; Dose 10.00 uM): 0.034 log 2 fold change
Z.LYZ.NS ([1]; Dose 10.00 uM): 0.297
Dose.FC.LYZ.S ([2]; Dose 0.08 uM): 0.136 log 2 fold change
Dose.FC.LYZ.S ([2]; Dose 0.40 uM): 0.172 log 2 fold change
Dose.FC.LYZ.S ([2]; Dose 2.00 uM): 0.209 log 2 fold change
Dose.FC.LYZ.S ([2]; Dose 10.00 uM): −0.024 log 2 fold change
Dose.FC.CTG ([3]; Dose 0.50 uM): −0.049
Z.CTG ([3]; Dose 0.50 uM): −0.443
repSSMD.CTG ([3]; Dose 0.50 uM): −0.324
Dose.FC.CTG ([3]; Dose 1.00 uM): −0.039
Z.CTG ([3]; Dose 1.00 uM): −0.354
repSSMD.CTG ([3]; Dose 1.00 uM): −0.284
Dose.FC.CTG ([3]; Dose 4.00 uM): 0.067
Z.CTG ([3]; Dose 4.00 uM): 0.601
repSSMD.CTG ([3]; Dose 4.00 uM): 0.414
Dose.FC.CTG ([3]; dose 2.00 uM): −0.076
Z.CTG ([3]; dose 2.00 uM): −0.684
repSSMD.CTG ([3]; dose 2.00 uM): −0.558
Dose.FC.LYZ.NS ([4]; Dose 0.50 uM): 0.005
Z.LYZ.NS ([4]; Dose 0.50 uM): 0.039
repSSMD.LYZ.NS ([4]; Dose 0.50 uM): 0.058
Dose.FC.LYZ.NS ([4]; Dose 1.00 uM): −0.200
Z.LYZ.NS ([4]; Dose 1.00 uM): −1.600
repSSMD.LYZ.NS ([4]; Dose 1.00 uM): −1.909
Dose.FC.LYZ.NS ([4]; Dose 4.00 uM): 0.015
Z.LYZ.NS ([4]; Dose 4.00 uM): 0.120
repSSMD.LYZ.NS ([4]; Dose 4.00 uM): 0.171
Dose.FC.LYZ.NS ([4]; dose 2.00 uM): −0.221
Z.LYZ.NS ([4]; dose 2.00 uM): −1.764
repSSMD.LYZ.NS ([4]; dose 2.00 uM): −2.529
Z.LYZ.S ([5]; Dose 0.50 uM): −0.305
log10 fold change in stimulated lysozyme secretion vs vehicle control ([5]; Dose 0.50 uM): −0.040
repSSMD.LYZ.S ([5]; Dose 0.50 uM): −0.496
Z.LYZ.S ([5]; Dose 1.00 uM): −1.879
log10 fold change in stimulated lysozyme secretion vs vehicle control ([5]; Dose 1.00 uM): −0.245
repSSMD.LYZ.S ([5]; Dose 1.00 uM): −2.451
Z.LYZ.S ([5]; Dose 4.00 uM): −0.320
log10 fold change in stimulated lysozyme secretion vs vehicle control ([5]; Dose 4.00 uM): −0.042
repSSMD.LYZ.S ([5]; Dose 4.00 uM): −0.503
Z.LYZ.S ([5]; dose 2.00 uM): −2.088
log10 fold change in stimulated lysozyme secretion vs vehicle control ([5]; dose 2.00 uM): −0.272
repSSMD.LYZ.S ([5]; dose 2.00 uM): −3.604
Dose.FC.CTG ([6]; Dose 0.08 uM): 0.261 log 2 fold change
Z.CTG ([6]; Dose 0.08 uM): 0.623
Dose.FC.CTG ([6]; Dose 0.40 uM): 0.268 log 2 fold change
Z.CTG ([6]; Dose 0.40 uM): 0.640
Dose.FC.CTG ([6]; Dose 2.00 uM): 0.302 log 2 fold change
Z.CTG ([6]; Dose 2.00 uM): 0.721
Dose.FC.CTG ([6]; Dose 10.00 uM): −0.321 log 2 fold change
Z.CTG ([6]; Dose 10.00 uM): −0.766

O=C(c1ccc(F)c(F)c1Nc1ccc(I)cc1F)N1CC(O)([C@@H]2CCCCN2)C1 [cobimetinib]
Paneth cell differentiation (functional LYZ secretion), in combination with KPT-330 [7]: differentiation was enhanced; also recorded: significantly enhance Paneth cell differentiation; also recorded: proved synergistic in combination with KPT-330
Paneth cell differentiation (functional LYZ secretion), compound alone [7]: did not significantly alter Paneth cell differentiation

c1ccc2c(CCNc3ccc(Nc4ccncc4)cc3)c[nH]c2c1 [serdemetan]
Paneth cell differentiation (functional LYZ secretion), in combination with KPT-330 [7]: neither P53 inhibitor altered Paneth cell differentiation; also recorded: did not alter Paneth cell differentiation
Paneth cell differentiation (functional LYZ secretion), compound alone [7]: neither P53 inhibitor altered Paneth cell differentiation; also recorded: did not alter Paneth cell differentiation
